# “And” between values parts separate entries of the source, which are not always exact repeats. Equal values may be shown once. Read-outs that look alike come from different tables or passages of the source.
# How the values were obtained:
# [1] = Water vapor uptake (GVS); assay type: physicochemical
# [2] = Solubility of sulfasalazine, Form A meglumine salt and pharmaceutical compositions (HPLC); assay type: physicochemical
# Description: The mobile phase consists of mobile phase (A): 1.13 g sodium dihydrogen phosphate and 2.5 g sodium acetate are dissolved in 1000 mL purified water. The pH is afterwards adjusted with acetic acid (100%) to 4.8. and mobile phase (B): 1 part mobile phase A is mixed with 4 parts of methanol for chromatography. The flow rate was 1.0 mL/min, injection volume 5 μL and detection wavelengths 320 nm (HP DAD series 1100). Run time is 10 min. Quantitation was performed using external standard methodology. The assay method has been validated with respect to selectivity, repeatability and linearity. Samples are prepared with dilute ammonia R3 PhEur.
# The saturated solutions were filtrated using centrifuge filters (Nylon, […]) and the clear supernatants were respectively injected either directly or after dilution with dilute ammonia R3 PhEur.
# The resulting solution is further diluted with phosphate buffer (pH 6.8) to 1% v/v solution prior. The resulting phosphate buffer solution is diluted with dilute ammonia R3 prior to injection.
# [3] = cited from earlier work
# [4] = in vitro; conditions: human, Caco-2
# [5] = cited from earlier work; remark: listed apart in the source
# [6] = physchem; conditions: de-ionized water, 24 °C
# [7] = system: binding of TNF-alpha to its receptor; conditions: 125I-TNF-alpha displacement; cited from earlier work
compound,measurement,setting,value
"CCNCC.O=C(O)c1cc(N=Nc2ccc(S(=O)(=O)Nc3ccccn3)cc2)ccc1O [Form A diethylamine salt, diethylamine 2-hydroxy-5-[2-[4-[(2-pyridinylamino)sulfonyl]phenyl]diazenyl]-benzoate, crystal Form A]",water vapor uptake (GVS; % w/w) at 30% RH,[1],0.3 % w/w
same,water vapor uptake (GVS; % w/w) at 80% RH,[1],0.5 % w/w
"CNCC(O)C(O)C(O)C(O)CO.O=C(O)c1cc(N=Nc2ccc(S(=O)(=O)Nc3ccccn3)cc2)ccc1O [Form A meglumine salt, D(−)-N-methylglucamine 2-hydroxy-5-[2-[4-[(2-pyridinylamino)sulfonyl]phenyl]diazenyl]-benzoate, crystal Form A]",solubility in de-ionized water at 24° C. and pH 6.6,,> 54 mg/mL
same,water vapor uptake (GVS; % w/w) at 30% RH,[1]; listed as 4.1,< 0.4 % w/w
same,water vapor uptake (GVS; % w/w) at 30% RH,[1]; listed as 4.2,0.4 % w/w
same,water vapor uptake (GVS; % w/w) at 80% RH,[1],1.1 % w/w
same,water vapor uptake (GVS; % w/w) at 80% RH,[1]; listed as 4.1,< 0.9 % w/w
same,Solubility (mg/mL) FaSSIF-V2,"[2]; FaSSIF-V2 medium, room temperature (20-25° C.), saturated solution",15.3 mg/mL
same,Solubility (mg/mL) Water,"[2]; water, diluted in phosphate Buffer pH 6.8",60.3 mg/mL
same,Solubility (mg/mL) Water,"[2]; water, room temperature",104.8 mg/mL
"C1CNCCN1.O=C(O)c1cc(N=Nc2ccc(S(=O)(=O)Nc3ccccn3)cc2)ccc1O [Form A piperazine salt, piperazine 2-hydroxy-5-[2-[4-[(2-pyridinylamino)sulfonyl]phenyl]diazenyl]-benzoate, crystal Form A]",water vapor uptake (GVS; % w/w) at 30% RH,[1],0.4 % w/w
same,water vapor uptake (GVS; % w/w) at 80% RH,[1],0.9 % w/w
Nc1ccc(S(=O)(=O)Nc2ccccn2)cc1 [sulfapyridine],systemic bioavailability,[3]; metabolite formed from non-absorbed sulfasalazine by gut flora,about 60%
"O=C(O)c1cc(N=Nc2ccc(S(=O)(=O)Nc3ccccn3)cc2)ccc1O [sulfasalazine, 2-hydroxy-5-[2-[4-[(2-pyridinylamino)sulfonyl]phenyl]diazenyl]-benzoic acid]","Papp A→B at 180 min, 200 μg/mL",[4],1.16 ×10⁻⁶ cm/s
same,"Papp A→B at 180 min, 2000 μg/mL",[4],0.81 ×10⁻⁶ cm/s
same,"Papp B→A at 180 min, 200 μg/mL",[4],4.76 ×10⁻⁶ cm/s
same,"Papp B→A at 180 min, 2000 μg/mL",[4],2.79 ×10⁻⁶ cm/s
same,solubility at 24 h,"[2]; pH 5.9, thermodynamic from solid, water, room temperature, read-out: Solubility (mg/mL) Water",0.06 mg/mL
same,solubility at 24 h,"[2]; pH 6.3, thermodynamic from solid, FaSSIF-V2 medium, room temperature (20-25° C.), saturated solution, read-out: Solubility (mg/mL) FaSSIF-V2",0.78 mg/mL
same,half-life,[3]; intravenously administered,approximately 7.6±3.6 hours
same,median peak concentration (time),"[3]; man, oral",6 h
same,solubility in de-ionized water at 24° C.,"[5]; 24° C., literature value",0.03 mg/mL and 0.031 mg/mL
same,solubility class according to United States Pharmacopoeia (practically insoluble),[5]; USP classification,< 0.1 mg/mL
same,solubility in water,[5]; water,less than 5 mg/100 ml
same,solubility,[6],60 µg/mL
same,binding of TNF-alpha to its receptor,[7],inhibits

# Reference: patent US12274706B2 (MEDAC GESELLSCHAFT FUER KLINISCHE SPEZIALPRAEPARATE MBH, priority 2017, dated 2025)
